In patent US8969388B1, “Substituted pyrazolone compounds and methods of use” (Calitor Sciences, LLC, priority 2012, dated 2015):
Like-named read-outs stand apart in the source and are kept apart here.

How the values were obtained:
[1] = Compound stability in human liver microsomes; format: in vitro ADME; settings: pH 7.4; for half-life at 5 μM: human liver microsomes 0.5 mg protein/mL, compound 5 μM, NADPH, 37° C., read-out: Human T1/2; for CLint scaled at 5 μM: human liver microsomes, in vivo CLint extrapolated
Description: (§1) Human or rat liver microsomes incubations were conducted in duplicate in polypropylene tubes. The typical incubation mixtures consisted of human liver microsomes (0.5 mg protein/mL), compounds of interest (5 μM) and NADPH (1.0 mM) in a total volume of 200 μL potassium phosphate buffer (PBS, 100 mM, pH 7.4). Compounds were dissolved in DMSO and diluted with PBS such that the final concentration of DMSO was 0.05%. The enzymatic reactions were commenced with the addition of protein after a 3-min preincubation and incubated in a water bath open to the air at 37° C. Reactions were terminated at various time points (0, 5, 10, 15, 30, 60 min) by adding equal volume of ice-cold acetonitrile. The samples were stored at −80° C. until LC/MS/MS assays.
(§2) The concentrations of compounds in the incubation mixtures of human liver microsomes were determined by a LC/MS/MS method. The ranges of the linearity in the concentration range were determined for each tested compounds.
(§3) A parallel incubation was performed using denatured microsomes as the negative control, and reactions were terminated at various time points (0, 15, 60 min) after incubation at 37° C.
(§4) Dextromethorphan (70 μM) was selected as the positive control, and reactions were terminated at various time points (0, 5, 10, 15, 30, 60 min) after incubation at 37° C. Both positive and negative control samples were included in each assay to ensure the integrity of the microsomal incubation system.
(§5) The concentrations of compounds in human liver microsome incubations were plotted as a percentage of the relevant zero time point control for each reaction. The in vivo CLint were extrapolated (ref: Naritomi Y, Terashita S, Kimura S, Suzuki A, Kagayama A, Sugiyama Y. Prediction of human hepatic clearance from in vivo animal experiments and in vitro metabolic studies with liver microsomes from animals and humans. Drug Metabolism and Disposition 2001, 29: 1316-1324.)

[2] = Compound stability in rat liver microsomes; format: in vitro ADME; settings: for half-life at 5 μM: pH 7.4, compound 5 μM, NADPH, 37° C., read-out: Rat T1/2; for CLint scaled at 5 μM: pH 7.4, in vivo CLint extrapolated
Description: as §1, §2, §3, §4, §5

[3] = Pharmacokinetics after intravenous and oral administration in rats; format: in vivo; settings: for F: oral bioavailability, oral dose not given; for AUC(0-t) / half-life / Vd: rat, plasma; for clearance (CL) after iv dosing / AUC(0-t) / half-life / Vd: iv dosing; for Vd: read-out: Vss
Description: The compounds disclosed herein are assessed in pharmacokinetic studies in mice, rats, dogs or monkeys. The compounds are administered as a water solution, 2% HPMC+1% TWEEN®80 in water solution, 5% DMSO+5% solutol in saline, 4% MC suspension or capsule. For the intravenous administration, the animals are generally given at 1 or 2 mg/kg dose. For the oral (p.o.) dosing, mice and rats are generally given 5 or 10 mg/kg dose, and dogs and monkeys are generally given 10 mg/kg dose. The blood samples (0.3 mL) are drawn at 0.25, 0.5, 1.0, 2.0, 3.0, 4.0, 6.0, 8.0, 12 and 24 h time points or 0.083, 0.25, 0.5, 1.0, 2.0, 4.0, 6.0, 8.0 and 24 h time points and centrifuged at 3,000 or 4000 rpm for 2 to 10 min. The plasma solutions are collected, stored at −20° C. or −70° C. until analyzed by LC/MS/MS as described above.

KDR (h) [4] = molecular target: T1, KDR (h) (Homo sapiens, UniProt P35968); test: KINOMEscan competition binding assay, KDR (h)
T1 construct: host or cells: E. coli BL21-derived host (T7 phage) or HEK-293
T1 sequence (P35968 20-1356): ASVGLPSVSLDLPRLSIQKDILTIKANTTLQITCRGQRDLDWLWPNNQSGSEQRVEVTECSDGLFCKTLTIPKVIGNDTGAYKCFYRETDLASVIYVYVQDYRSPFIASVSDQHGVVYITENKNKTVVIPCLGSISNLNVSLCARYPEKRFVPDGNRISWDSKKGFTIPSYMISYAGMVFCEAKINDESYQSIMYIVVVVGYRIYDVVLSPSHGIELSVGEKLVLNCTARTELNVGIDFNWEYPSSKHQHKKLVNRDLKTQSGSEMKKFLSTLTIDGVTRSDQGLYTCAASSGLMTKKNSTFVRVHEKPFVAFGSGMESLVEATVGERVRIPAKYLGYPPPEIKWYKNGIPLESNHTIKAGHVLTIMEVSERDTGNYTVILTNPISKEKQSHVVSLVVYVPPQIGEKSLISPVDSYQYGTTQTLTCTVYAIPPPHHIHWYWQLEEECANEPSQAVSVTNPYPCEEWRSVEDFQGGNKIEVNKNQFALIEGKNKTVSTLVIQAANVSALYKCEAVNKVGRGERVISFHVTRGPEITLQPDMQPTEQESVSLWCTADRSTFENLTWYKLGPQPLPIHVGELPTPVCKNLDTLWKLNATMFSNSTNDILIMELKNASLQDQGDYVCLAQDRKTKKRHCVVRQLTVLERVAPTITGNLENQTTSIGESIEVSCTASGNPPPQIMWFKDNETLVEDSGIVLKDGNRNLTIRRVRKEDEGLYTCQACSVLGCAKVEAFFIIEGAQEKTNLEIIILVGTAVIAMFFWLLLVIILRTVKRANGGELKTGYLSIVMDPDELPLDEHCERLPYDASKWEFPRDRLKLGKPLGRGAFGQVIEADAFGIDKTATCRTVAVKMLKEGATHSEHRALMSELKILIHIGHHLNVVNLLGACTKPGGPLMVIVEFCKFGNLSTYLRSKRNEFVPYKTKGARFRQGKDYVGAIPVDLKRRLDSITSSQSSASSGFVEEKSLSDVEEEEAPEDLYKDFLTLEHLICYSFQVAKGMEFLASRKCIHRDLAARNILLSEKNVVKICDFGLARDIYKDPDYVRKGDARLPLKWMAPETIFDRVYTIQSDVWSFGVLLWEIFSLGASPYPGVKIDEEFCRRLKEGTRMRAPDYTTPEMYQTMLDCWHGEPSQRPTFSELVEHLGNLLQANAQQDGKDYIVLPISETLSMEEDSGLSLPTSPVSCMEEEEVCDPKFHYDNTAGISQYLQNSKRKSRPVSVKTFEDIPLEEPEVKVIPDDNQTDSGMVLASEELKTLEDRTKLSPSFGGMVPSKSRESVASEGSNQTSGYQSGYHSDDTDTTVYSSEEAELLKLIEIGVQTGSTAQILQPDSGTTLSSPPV
Description: (§6) Alternatively, the kinase activities of the compounds can be measured using KINOMEscan™, which is based on a competition binding assay that quantitatively measures the ability of a compound to compete with an immobilized, active-site directed ligand. The assay was performed by combining three components: DNA-tagged kinase; immobilized ligand; and a test compound. The ability of the test compound to compete with the immobilized ligand was measured via quantitative PCR of the DNA tag.
(§7) For most assays, kinase-tagged T7 phage strains were prepared in an E. coli host derived from the BL21 strain. E. coli were grown to log-phase and infected with T7 phage and incubated with shaking at 32° C. until lysis. The lysates were centrifuged and filtered to remove cell debris. The remaining kinases were produced in HEK-293 cells and subsequently tagged with DNA for qPCR detection. Streptavidin-coated magnetic beads were treated with biotinylated small molecule ligands for 30 minutes at room temperature to generate affinity resins for kinase assays. The liganded beads were blocked with excess biotin and washed with blocking buffer (SEABLOCK™ (Pierce), 1% BSA, 0.05% TWEEN®20, 1 mM DTT) to remove unbound ligand and to reduce nonspecific binding. Binding reactions were assembled by combining kinases, liganded affinity beads, and test compounds in 1× binding buffer (20% SEABLOCK™, 0.17×PBS, 0.05% TWEEN®20, 6 mM DTT). All reactions were performed in polystyrene 96-well plates in a final volume of 0.135 mL. The assay plates were incubated at room temperature with shaking for 1 hour and the affinity beads were washed with wash buffer (1×PBS, 0.05% TWEEN®20). The beads were then re-suspended in elution buffer (1×PBS, 0.05% TWEEN®20, 0.5 μM non-biotinylated affinity ligand) and incubated at room temperature with shaking for 30 minutes. The kinase concentration in the eluates was measured by qPCR.
(§8) The kinase assays described herein were performed using KINOMEscan™ Profiling Service at DiscoveRx Corporation, 42501 Albrae St. Fremont, Calif.

c-Met (h) [5] = molecular target: T2, c-Met (h) (Homo sapiens, UniProt P08581); test: KINOMEscan competition binding assay, c-Met (h)
T2 construct: host or cells: E. coli BL21-derived host (T7 phage) or HEK-293
T2 sequence (P08581 25-1390): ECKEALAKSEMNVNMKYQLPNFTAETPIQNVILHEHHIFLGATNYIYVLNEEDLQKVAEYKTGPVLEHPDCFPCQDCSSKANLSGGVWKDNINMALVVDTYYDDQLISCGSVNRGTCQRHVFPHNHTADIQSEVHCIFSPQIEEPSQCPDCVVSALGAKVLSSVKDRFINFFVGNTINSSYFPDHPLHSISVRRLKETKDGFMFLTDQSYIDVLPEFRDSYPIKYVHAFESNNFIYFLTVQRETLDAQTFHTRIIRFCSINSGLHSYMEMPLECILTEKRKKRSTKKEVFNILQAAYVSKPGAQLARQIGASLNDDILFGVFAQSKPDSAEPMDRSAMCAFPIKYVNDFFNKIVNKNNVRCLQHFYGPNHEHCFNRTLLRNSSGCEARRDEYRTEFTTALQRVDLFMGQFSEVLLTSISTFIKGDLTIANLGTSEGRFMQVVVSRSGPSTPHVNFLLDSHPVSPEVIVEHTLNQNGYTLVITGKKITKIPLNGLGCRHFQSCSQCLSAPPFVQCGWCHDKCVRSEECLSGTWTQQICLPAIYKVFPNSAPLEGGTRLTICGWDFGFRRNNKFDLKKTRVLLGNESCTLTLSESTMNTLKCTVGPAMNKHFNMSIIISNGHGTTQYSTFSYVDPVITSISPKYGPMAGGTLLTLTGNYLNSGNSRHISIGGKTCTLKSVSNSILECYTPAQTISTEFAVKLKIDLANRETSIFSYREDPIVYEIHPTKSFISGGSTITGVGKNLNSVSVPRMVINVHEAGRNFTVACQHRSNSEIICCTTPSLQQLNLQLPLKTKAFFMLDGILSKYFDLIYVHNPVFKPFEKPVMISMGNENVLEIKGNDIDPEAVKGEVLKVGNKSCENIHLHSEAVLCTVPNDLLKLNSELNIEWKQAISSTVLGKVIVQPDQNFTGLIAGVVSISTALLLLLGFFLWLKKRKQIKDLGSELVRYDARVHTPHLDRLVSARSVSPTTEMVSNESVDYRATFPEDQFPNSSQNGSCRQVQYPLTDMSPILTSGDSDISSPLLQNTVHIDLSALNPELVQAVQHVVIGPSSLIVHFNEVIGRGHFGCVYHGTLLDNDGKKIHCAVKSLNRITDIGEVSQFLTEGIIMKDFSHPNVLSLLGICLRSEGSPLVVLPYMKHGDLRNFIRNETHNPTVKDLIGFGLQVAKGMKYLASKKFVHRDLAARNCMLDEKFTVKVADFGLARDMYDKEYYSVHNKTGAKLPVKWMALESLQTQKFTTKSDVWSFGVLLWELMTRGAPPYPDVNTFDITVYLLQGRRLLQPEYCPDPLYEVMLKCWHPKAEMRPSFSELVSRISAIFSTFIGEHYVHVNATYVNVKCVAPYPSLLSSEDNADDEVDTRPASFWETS
Description: as §6, §7, §8

U87MG glioblastoma cells = test: U87MG tumor xenograft model, tumor growth inhibition; format: in vivo, athymic nude mice (BALB/cA nu/nu); settings: mice, oral gavage
Description: The efficacy of compounds disclosed herein was evaluated in a standard murine model of tumorigenesis. Human tumor cells (U87MG glioblastoma cells from ATCC) were expended in culture, harvested, and injected subcutaneously onto the rear flank of 6-7 week old female athymic nude mice (BALB/cA nu/nu, Hunan SLAC Laboratory Animal, Co.) (n=6-10 for vehicle group and for each dosing group). When tumors reached a volume of 100-250 mm^3, animals were randomly divided into vehicle control (for example, 5% DMSO+70% Captisol® (30%), 7% HCl (pH1), 18% Captisol® (30%); or 7% DMSO, 7% HCl (pH1), 70% Captisol® (30%), 16% Captisol® (30%), or the like) and compound groups. Subsequent administration of compound by oral gavage begins anywhere from day 0 to day 15 post tumor cell challenge and generally continues with once a day for the duration of the experiment.
Progression of tumor growth is assessed by tumor volumes and recorded as a function of time. The long (L) and short (W) axes of the subcutaneous tumors were measured with calipers twice weekly, and the tumor volume (TV) calculated as (L×W^2)/2). TGI was calculated from the difference between the median tumor volumes of vehicle-treated and drug-treated mice, expressed as a percentage of the median tumor volume of the vehicle-treated control group, by the following relation:
[formula] Initial statistical analysis is done by repeated measures analysis of variance (RMANOVA), followed by Scheffe psot hoc testing for multiple comparisons. Vehicle alone (5% DMSO+70% Captisol® (30%), 7% HCl (pH1), 18% Captisol® (30%); or 7% DMSO, 7% HCl (pH1), 70% Captisol® (30%), 16% Captisol® (30%), or the like) is the negative control.

KDR (h) [6] = molecular target: T1, KDR (h); test: KDR (h) (VEGF-R2 (h)) kinase assay (IC50); format: biochemical; settings: cells marked (IC50) in the Kd table
Description: (§9) The above assay procedure can be used to determine the IC50 for inhibition and/or the inhibition constant, Ki. The IC50 is defined as the concentration of compound required to reduce the enzyme activity by 50% under the condition of the assay. The IC50 value is estimated by preparing a 10 point curve using a ½ log dilution series (for example, a typical curve may be prepared using the following compound concentrations; 100 μM, 30 μM, 10 μM, 3 μM, 1 μM, 0.3 μM, 0.1 μM, 0.03 μM, 0.01 μM and 0 μM).
KDR (h) (VEGF-R2 (h)) Assay
(§10) (specific activity approx. 500 cpm/pmol, concentration as required).
(§11) The kinase assays described herein can be performed at Millipore UK Ltd, Dundee Technology Park, Dundee DD2 1SW, UK c-Met (h) Assay.

c-Met (h) [7] = molecular target: T2, c-Met (h); test: c-Met (h) kinase assay (IC50); format: biochemical; settings: cells marked (IC50) in the Kd table
Description: as §9, §10, §11

SMILES | half-life at 5 μM [1] [h] | CLint scaled at 5 μM [1] [mL/min/kg] | half-life at 5 μM [2] [h] | CLint scaled at 5 μM [2] [mL/min/kg] | clearance (CL) after iv dosing ([3]; 2 mg/kg) [mL/min/kg] | F ([3]; iv dose 2 mg/kg) [%] | AUC(0-t) ([3]; 2 mg/kg) [ng·h/mL] | half-life ([3]; 2 mg/kg) [h] | Vd ([3]; 2 mg/kg) [L/kg] | clearance (CL) after iv dosing ([3]; 1 mg/kg) [mL/min/kg] | F ([3]; iv dose 1 mg/kg) [%] | AUC(0-t) ([3]; 1 mg/kg) [ng·h/mL] | half-life ([3]; 1 mg/kg) [h] | Vd ([3]; 1 mg/kg) [L/kg] | Kd (KDR (h) [4]) [nM] | Kd (c-Met (h) [5]) [nM] | TGI % (on last day of dosing) (U87MG glioblastoma cells; 6 mg/kg, 14 days) [%] | TGI % (on last day of dosing) (U87MG glioblastoma cells; 20 mg/kg, 14 days) [%] | TGI % (on last day of dosing) (U87MG glioblastoma cells; 60 mg/kg, 14 days) [%] | further results
Cc1c(C(=O)Nc2ccc(Oc3ccnc(N)c3)cc2F)c(=O)n(-c2ccccc2)n1C [Ex. 30, N-(4-((2-aminopyridin-4-yl)oxy)-2-fluorophenyl)-1,5-dimethyl-3-oxo-2-phenyl-2,3-dihydro-1H-pyrazole-4-carboxamide] | 2.09 | 13.9 | 1.61 | 25.8 | 22 | 54.4 | 1490 | 11.8 | 2.64 |  |  |  |  |  |  |  |  |  |  | 
Cc1c(C(=O)Nc2ccc(Oc3ccnc(N)c3Cl)c(F)c2)c(=O)n(-c2ccccc2)n1C [Ex. 3, N-(4-((2-amino-3-chloropyridin-4-yl)oxy)-3-fluorophenyl)-1,5-dimethyl-3-oxo-2-phenyl-2,3-dihydro-1H-pyrazole-4-carboxamide] | 12.4 | 2.34 | 1.02 | 40.6 |  |  |  |  |  | 17 | 177.1 | 922 | 2.69 | 1.61 | 23 | 4.4 |  |  |  | TGI % (on last day of dosing) (U87MG glioblastoma cells; 10 mg/kg, 16 days): 53%; TGI % (on last day of dosing) (U87MG glioblastoma cells; 20 mg/kg, 16 days): 68%; TGI % (on last day of dosing) (U87MG glioblastoma cells; 40 mg/kg, 16 days): 85%
Cc1c(C(=O)Nc2ccc(Oc3ccnc(NC(=O)N4CCOCC4)c3)cn2)c(=O)n(-c2ccccc2)n1C [Ex. 18, N-(4-((6-(1,5-dimethyl-3-oxo-2-phenyl-2,3-dihydro-1H-pyrazole-4-carboxamido)pyridin-3-yl)oxy)pyridin-2-yl)morpholine-4-carboxamide] |  |  |  |  |  |  |  |  |  | 4 | 77.2 | 4290 | 1.23 | 0.36 | 39 | 2.9 | 28 | 49 | 57 | 
Cc1c(C(=O)Nc2ccc(Oc3ccnc(N)c3Cl)cc2)c(=O)n(-c2ccccc2)n1C [Ex. 2, N-(4-((2-amino-3-chloropyridin-4-yl)oxy)phenyl)-1,5-dimethyl-3-oxo-2-phenyl-2,3-dihydro-1H-pyrazole-4-carboxamide] |  |  |  |  |  |  |  |  |  | 23.2 | 98.5 | 685 | 4.1 | 1.75 | 43 | 13 | 29 | 69 | 82 | 
Cc1c(C(=O)Nc2ccc(Oc3ccnc(N)c3Cl)cc2F)c(=O)n(-c2ccccc2)n1C [Ex. 31, N-(4-((2-amino-3-chloropyridin-4-yl)oxy)-2-fluorophenyl)-1,5-dimethyl-3-oxo-2-phenyl-2,3-dihydro-1H-pyrazole-4-carboxamide] | 2.44 | 11.8 | 0.611 | 67.8 | 8.83 | 70.3 | 3910 | 3.29 | 0.4 |  |  |  |  |  |  |  |  |  |  | 
Cc1c(C(=O)Nc2cc(F)c(Oc3ccnc(N)c3)cc2F)c(=O)n(-c2ccccc2)n1C [Ex. 8, N-(4-((2-aminopyridin-4-yl)oxy)-2,5-difluorophenyl)-1,5-dimethyl-3-oxo-2-phenyl-2,3-dihydro-1H-pyrazole-4-carboxamide] |  |  |  |  | 10.2 | 85.1 | 3350 | 0.82 | 0.51 |  |  |  |  |  | 1500 | 4.8 | 13 | 25 | 43 | 
Cc1c(C(=O)Nc2ccc(Oc3ccnc(N)c3)cc2)c(=O)n(-c2ccccc2)n1C [Ex. 1, N-(4-((2-aminopyridin-4-yl)oxy)phenyl)-1,5-dimethyl-3-oxo-2-phenyl-2,3-dihydro-1H-pyrazole-4-carboxamide] |  |  |  |  |  |  |  |  |  | 23.7 | 31.2 | 706 | 1.13 | 0.68 |  |  |  |  |  | IC50 (KDR (h) [6]): > 3000 nM; IC50 (c-Met (h) [7]): 611 nM
